Assay: Solubilization test of Poloxamer 188/407 to Aspirin in ethanol
Type: physicochemical
Settings: for Amount Dissolved: 10 ml, room temperature (30° C.)
Procedure: (1) 0%,10%, 20%, 30%, 40% (m/v) of Poloxamer 188/407 anhydrous ethanol solution were prepared respectively,10 ml of each solution was added into five sealed centrifuge tubes respectively (each centrifuge tube was numbered accordingly).
(2) Each centrifuge tube was added with adequate amount of Aspirin based on the pre-test data (please refer to Table 1: 0 h data), and shaken to dissolution at room temperature (30° C.).
0.1 g of Aspirin would be added into the tube when complete dissolution was observed, then sealed and continued shaking. In cases which the drug was not dissolved, the previous amount of drug dissolved would be recorded as the maximum amount needed for dissolution.
(4) Dissolution observation was continued until some amount of drug compound could not be dissolved.
(5) The observation of each tube was recorded in Table 1

## CC(=O)Oc1ccccc1C(=O)O [Aspirin, acetylsalicylic acid]
Poloxamer 188 0%
  Solubilization Rate: 0%
Poloxamer 188 0% (m/v) in anhydrous ethanol
  Amount Dissolved: 2.50 g
Poloxamer 188 10%
  Solubilization Rate: 12%
Poloxamer 188 10% (m/v) in anhydrous ethanol
  Amount Dissolved: 2.80 g
Poloxamer 188 20%
  Solubilization Rate: 20%
Poloxamer 188 20% (m/v) in anhydrous ethanol
  Amount Dissolved: 3.00 g
Poloxamer 188 30%
  Solubilization Rate: 24%
Poloxamer 188 30% (m/v) in anhydrous ethanol
  Amount Dissolved: 3.10 g
Poloxamer 188 40%
  Solubilization Rate: 28%
Poloxamer 188 40% (m/v) in anhydrous ethanol
  Amount Dissolved: 3.20 g
Poloxamer 188 and 407 anhydrous ethanol
  solubility of Aspirin: increases with Poloxamer concentration
Poloxamer 407 0%
  Solubilization Rate: 0%
Poloxamer 407 0% (m/v) in anhydrous ethanol
  Amount Dissolved: 2.50 g
Poloxamer 407 10%
  Solubilization Rate: 12%
Poloxamer 407 10% (m/v) in anhydrous ethanol
  Amount Dissolved: 2.80 g
Poloxamer 407 20%
  Solubilization Rate: 20%
Poloxamer 407 20% (m/v) in anhydrous ethanol
  Amount Dissolved: 3.00 g
Poloxamer 407 30%
  Solubilization Rate: 24%
Poloxamer 407 30% (m/v) in anhydrous ethanol
  Amount Dissolved: 3.10 g
Poloxamer 407 40%
  Solubilization Rate: 28%
Poloxamer 407 40% (m/v) in anhydrous ethanol
  Amount Dissolved: 3.20 g

— patent publication US20180228818A1, “PHARMACEUTICAL COMPOSITION COMPRISING ASPRIN, METFORMIN, AND SEROTONIN WITH NON-IONIC SURFACTANT” (ALS MOUNTAIN LLC, priority 2014, published 2018)
